Measurements from patent US20050256132A1, “Use of ER selective NF-kB inhibitors for the treatment of sepsis” (priority 2003, published 2005).

Tests used:
CK = experiment: Creatine kinase assay in ERα infected HAECT-1 cells (Table 2); type: cell-based, human; conditions: Homo sapiens; for EC50: HAECT1; for Emax: HAECT1, read-out: CK % Efficacy
Method: T-175 flasks of 100% confluent HAECT-1 cells (immortalized human aortic endothelial cells) were washed with 8 ml of HBSS (HEPES buffered saline solution) and infected for fours hours with 6 ml of a 1:10 dilution of Ad5-wt-hERα virus (an adenovirus transfection vector that mediates CMV promoter driven expression of human ERα) in phenol red free Endothelial Cell Basal medium (Clonetics, San Diego, Calif., Catalog # CC-3129) containing 0.25% bovine serum albumin (EDM-BSA). After four hours, cells were washed with EDM-BSA and incubated overnight in the same medium. Following overnight incubation, cells were washed with EDM-BSA and infected for 2 hours with 6 ml of a 1:10 dilution of Ad5-3x(NFκB).Luc virus (Adenovirus luciferase expression vector driven by three repeats of the MHC NFκb sites 5′ to the thymidine kinase promoter) in EDM-BSA. After two hours, cells were washed and incubated at 34° C. for one hour. Cells were then washed, trypsinized, counted, and resuspended in 95% FBS/5% dimethylsulfoxide at a concentration of […], frozen as 1 or 5 ml aliquots in cryo-vials and stored at −150° C. Control (no ER infection) cells were processed as above without Ad5-wt-hERα virus infection.
ERα infected HAECT-1 cells or control cells were thawed, diluted 42× in warm EBM-BSA, plated into 96-well plates at 0.1 ml/well and incubated for 4 hours at 34° C. Test compounds were added to the cells at 2× stocks in EBM-BSA containing 2 ng/ml IL-1β Ad6-IL-6(1250 bp).Luc virus and plates were returned to the incubator (34° C.). After […], cells were lysed with 50 μl of Promega Cell Culture Lysis reagenet for about 5 minutes at room temperature on a shaker. After lysing, 15 μl of lysate is transferred to luminometer plates for luciferase determination. Luciferase activity is evaluated using a Perkin Elmer Victor2 1420 multilabel counter. Creatine kinase was determined from the rate of increase in A340 following addition of 100 μl of CK assay reagent (Sigma catalog no. 47-10) to the remainder of the cell lysate.
For IC50 and EC50 calculations, mean IL-6, luciferase or CK values versus log10 of the compound concentration were fitted to a four parameter logistic equation. The IC50/EC50 value, ‘Hill slope,’ upper and lower limits of the curve were iteratively estimated.

ER/IL-6 = experiment: Endothelial Cell ER/IL-6 Assay, IL-6 promoter luciferase (Table 2); type: cell-based, human; conditions: Homo sapiens, HAECT1, ERα infected HAECT-1 cells, IL-1β; for Emax: read-out: IL6 luc % Efficacy; for IC50: read-out: IL6 luc IC50
Outline: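 One lysate gave both read-outs: luciferase for ER/IL-6 and A340 rate after CK reagent for CK, with four-parameter logistic IC50/EC50. Cells were HAECT-1 aortic endothelial cells carrying adenoviral human ERα (or none), dosed […] at 34 °C from 2× stocks containing 2 ng/ml IL-1β and IL-6(1250 bp)-Luc adenovirus.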

NF-κB = experiment: IL-1β stimulated NF-κB reporter activity in ERα expressing HAECT-1 cells; type: cell-based, human; conditions: 1 μM ICI, 1 μM compound 67, FIG. 1B
Method: HAECT-1 cells (Chadwick C C, et al., Proc Natl Acad Sciences, 2005, 102(7): 2543-2548) were cultured in EGM (GIBCO, Rockville, Md.) containing 10% FBS, 1% GlutaMAX and 0.1% Antimycotic-Antibiotic in Falcon T-175 culture flasks at 34° C. in 5% CO2 and infected for four hours with Ad5-wt-ER virus. After overnight recovery, the cells were infected for 2 hours with the Ad5-3x(NFκB).Luc or Ad5-IL6.Luc virus. Compound 67 and 2 ng/ml IL-1 were added to the cells for 15-20 h and the cell lysate was assayed for luciferase activity and evaluated for CK expression (Stanbio Laboratories, Texas). The values are reported as mean±SEM with n=4 from at least 3 independent experiments.

| SMILES | EC50 (CK) | IC50 (ER/IL-6) | melting point | Emax (CK) | Emax (ER/IL-6) | antagonism of the activity of compound 67 on NF-κB reporter (NF-κB) |
| --- | --- | --- | --- | --- | --- | --- |
| COc1ccccc1C1CCN(C(=O)[C@](C)(C#N)[C@H](c2ccccc2OC)c2cccc3ccccc23)CC1 [Example 138, (2S,3S)-3-(2-methoxyphenyl)-2-{[4-(2-methoxyphenyl)piperidin-1-yl]carbonyl}-2-methyl-3-(1-naphthyl)propanenitrile] | 34 nM | 15 nM | 135 to 140 °C | 49% | 131% | – |
| COC[C@@](C#N)(C(=O)OC)[C@@H](c1ccccc1OC)c1cccc2ccccc12 [Example 151, Methyl (2R,3R)-2-cyano-2-(methoxymethyl)-3-(2-methoxyphenyl)-3-(1-naphthyl)propanoate] | 13.5 nM | 5.5 nM | 175.6 to 177.6 °C | 30% | 141% | – |
| COC(=O)[C@](C#N)(Cc1cccnc1)[C@@H](c1ccccc1OC)c1cccc2ccccc12 [Example 155, Methyl (2R,3R)-2-cyano-3-(2-methoxyphenyl)-3-(1-naphthyl)-2-(pyridin-3-ylmethyl)propanoate] | 6 nM | 2 nM | 193 °C (dec.) | 33% | 105% | – |
| COC(=O)C(C)(C#N)C(c1ccccc1OC)c1ccnc2ccccc12 (stereo not shown) [Example 160, Methyl 2-cyano-3-(2-methoxyphenyl)-2-methyl-3-(quinolin-4-yl)propanoate] | – | 1260 nM | 192 to 193.9 °C | -10% | 82% | – |
| COc1ccccc1C(c1ccnc2ccccc12)C(C#N)(Cc1cccnc1)C(=O)OC(C)(C)C (stereo not shown) [Example 166, tert-Butyl 2-cyano-3-(2-methoxyphenyl)-2-(pyridin-3-ylmethyl)-3-quinolin-4-ylpropanoate] | – | 353 nM | 225 to 228 °C | -13% | 77% | – |
| COc1ccccc1[C@H](c1cccc2ccccc12)[C@@](C)(C#N)C(=O)N1CCC(n2c(=O)[nH]c3ccccc32)CC1 [Example 183, (2S,3S)-3-(2-methoxyphenyl)-2-methyl-3-(1-naphthyl)-2-{[4-(2-oxo-2,3-dihydro-1H-benzimidazol-1-yl)piperidin-1-yl]carbonyl}propanenitrile] | 481 nM | 361 nM | 197 to 200 °C | 63% | 196% | – |
| COc1ccccc1[C@H](c1cccc2ccccc12)[C@@](C)(C#N)C(=O)N1CCC(O)(c2ccc(Cl)cc2)CC1 [Example 186, (2S)-3-[4-(4-chlorophenyl)-4-hydroxypiperidin-1-yl]-2-[(S)-(2-methoxyphenyl)(1-naphthyl)methyl]-2-methyl-3-oxopropanenitrile] | – | 2460 nM | 202 to 204 °C | 11% | 60% | – |
| C[C@]12CC[C@@H]3c4ccc(O)cc4C[C@@H](CCCCCCCCC[S+]([O-])CCCC(F)(F)C(F)(F)F)[C@H]3[C@@H]1CC[C@@H]2O (stereo partly shown) [ICI 182,780, reference compound] | – | – | – | – | – | effectively antagonized |

Further lines, with some results ahead:

| EC50 (CK) | IC50 (ER/IL-6) | melting point | SMILES | Emax (CK) | Emax (ER/IL-6) | antagonism of the activity of compound 67 on NF-κB reporter (NF-κB) |
| --- | --- | --- | --- | --- | --- | --- |
| 50 nM | 21 nM | 267 to 268 °C | COc1ccccc1[C@H](c1cccc2ccccc12)[C@@](C)(C#N)C(=O)N1CCC(c2c[nH]c3ccccc23)CC1 [Example 187, (2S)-3-[4-(1H-indol-3-yl)piperidin-1-yl]-2-[(S)-(2-methoxyphenyl)(1-naphthyl)methyl]-2-methyl-3-oxopropanenitrile] | 48% | 134% | – |
| 415 nM | 44 nM | 153 to 154 °C | COc1ccccc1[C@H](c1cccc2ccccc12)[C@@](C)(C#N)C(=O)N1CCN(c2ncccn2)CC1 [Example 192, (2S,3S)-3-(2-methoxyphenyl)-2-methyl-3-(1-naphthyl)-2-[(4-pyrimidin-2-ylpiperazin-1-yl)carbonyl]propanenitrile] | – | 176% | – |
| – | 9.93 nM | 209 to 210 °C | COc1ccccc1[C@H](c1cccc2ccccc12)[C@@](C)(C#N)C(=O)N1CCC(N2CCOCC2)CC1 [Example 203, (2S,3S)-3-(2-methoxyphenyl)-2-methyl-2-[(4-morpholin-4-ylpiperidin-1-yl)carbonyl]-3-(1-naphthyl)propanenitrile] | -26% | 28% | – |
| – | 117 nM | 174 to 175 °C | COCC(C#N)(C(=O)N1CCN(CCCN(C)C)CC1)C(c1ccccc1OC)c1cccc2ccccc12 (stereo not shown) [Example 204, 3-{4-[3-(dimethylamino)propyl]piperazin-1-yl}-2-(methoxymethyl)-2-[(2-methoxyphenyl)(1-naphthyl)methyl]-3-oxopropanenitrile] | -34% | 23% | – |
| – | 4000 nM | 140 to 141 °C | COCCN1CCN(C(=O)C(C#N)(COCc2ccccc2)C(c2ccccc2OC)c2cccc3ccccc23)CC1 (stereo not shown) [Example 207, 2-[(benzyloxy)methyl]-3-[4-(2-methoxyethyl)piperazin-1-yl]-2-[(2-methoxyphenyl)(1-naphthyl)methyl]-3-oxopropanenitrile] | -16% | 63% | – |
| – | 276 nM | 143 to 144 °C | COc1ccccc1[C@H](c1cccc2ccccc12)[C@@](C)(C#N)C(=O)N1CCN(c2cnccn2)CC1 [Example 214, (2S,3S)-3-(2-methoxyphenyl)-2-methyl-3-(1-naphthyl)-2-[(4-pyrazin-2-ylpiperazin-1-yl)carbonyl]propanenitrile] | 12% | 136% | – |
| – | – | 84 to 85 °C | COc1ccccc1[C@H](c1cccc2ccccc12)[C@@](C)(C#N)C(=O)N1CCN(CCN(C)C)CC1 [Example 216, (2S)-3-{4-[2-(dimethylamino)ethyl]piperazin-1-yl}-2-[(S)-(2-methoxyphenyl)(1-naphthyl)methyl]-2-methyl-3-oxopropanenitrile] | -21% | 51% | – |
| 318 nM | 38 nM | 149 °C | COC[C@](C#N)(C(=O)N1CCN(c2cnccn2)CC1)[C@H](c1ccccc1OC)c1cccc2ccccc12 [Example 223, (2S,3S)-2-(methoxymethyl)-3-(2-methoxyphenyl)-3-(1-naphthyl)-2-[(4-pyrazin-2-ylpiperazin-1-yl)carbonyl]propanenitrile] | 24% | 154% | – |
| – | 832 nM | 150 °C | COC[C@@](C#N)(C(=O)N1CCN(c2cnccn2)CC1)[C@@H](c1ccccc1OC)c1cccc2ccccc12 [Example 224, (2R,3R)-2-(methoxymethyl)-3-(2-methoxyphenyl)-3-(1-naphthyl)-2-[(4-pyrazin-2-ylpiperazin-1-yl)carbonyl]propanenitrile] | -14% | 77% | – |
